Laboratory results as given in paper PMC12269308, “Martinostat as a novel HDAC inhibitor to overcome tyrosine kinase inhibitor resistance in chronic myeloid leukemia” (Clinical Epigenetics, 2025).

What was measured:
Settings in all cases: read-out: IC50 (nM)^1 / Martinostat
HDAC11 = biological target: T1, HDAC11 (Homo sapiens, UniProt Q96DB2); assay: fluorescence HDAC isoenzyme activity assay; assay type: biochemical
T1 sequence (Q96DB2 1-347): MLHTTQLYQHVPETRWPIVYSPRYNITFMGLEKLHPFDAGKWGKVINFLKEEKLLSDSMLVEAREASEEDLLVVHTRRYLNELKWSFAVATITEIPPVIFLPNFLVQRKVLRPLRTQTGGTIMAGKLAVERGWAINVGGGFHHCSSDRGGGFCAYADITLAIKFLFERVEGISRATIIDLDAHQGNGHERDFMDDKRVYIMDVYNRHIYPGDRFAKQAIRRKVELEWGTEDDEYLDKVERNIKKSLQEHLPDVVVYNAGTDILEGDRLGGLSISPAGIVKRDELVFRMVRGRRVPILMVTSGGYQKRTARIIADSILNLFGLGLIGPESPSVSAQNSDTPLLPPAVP

HDAC6 = biological target: T2, HDAC6 (Homo sapiens, UniProt Q9UBN7); assay: fluorescence HDAC isoenzyme activity assay; assay type: biochemical
T2 sequence (Q9UBN7 1-1215): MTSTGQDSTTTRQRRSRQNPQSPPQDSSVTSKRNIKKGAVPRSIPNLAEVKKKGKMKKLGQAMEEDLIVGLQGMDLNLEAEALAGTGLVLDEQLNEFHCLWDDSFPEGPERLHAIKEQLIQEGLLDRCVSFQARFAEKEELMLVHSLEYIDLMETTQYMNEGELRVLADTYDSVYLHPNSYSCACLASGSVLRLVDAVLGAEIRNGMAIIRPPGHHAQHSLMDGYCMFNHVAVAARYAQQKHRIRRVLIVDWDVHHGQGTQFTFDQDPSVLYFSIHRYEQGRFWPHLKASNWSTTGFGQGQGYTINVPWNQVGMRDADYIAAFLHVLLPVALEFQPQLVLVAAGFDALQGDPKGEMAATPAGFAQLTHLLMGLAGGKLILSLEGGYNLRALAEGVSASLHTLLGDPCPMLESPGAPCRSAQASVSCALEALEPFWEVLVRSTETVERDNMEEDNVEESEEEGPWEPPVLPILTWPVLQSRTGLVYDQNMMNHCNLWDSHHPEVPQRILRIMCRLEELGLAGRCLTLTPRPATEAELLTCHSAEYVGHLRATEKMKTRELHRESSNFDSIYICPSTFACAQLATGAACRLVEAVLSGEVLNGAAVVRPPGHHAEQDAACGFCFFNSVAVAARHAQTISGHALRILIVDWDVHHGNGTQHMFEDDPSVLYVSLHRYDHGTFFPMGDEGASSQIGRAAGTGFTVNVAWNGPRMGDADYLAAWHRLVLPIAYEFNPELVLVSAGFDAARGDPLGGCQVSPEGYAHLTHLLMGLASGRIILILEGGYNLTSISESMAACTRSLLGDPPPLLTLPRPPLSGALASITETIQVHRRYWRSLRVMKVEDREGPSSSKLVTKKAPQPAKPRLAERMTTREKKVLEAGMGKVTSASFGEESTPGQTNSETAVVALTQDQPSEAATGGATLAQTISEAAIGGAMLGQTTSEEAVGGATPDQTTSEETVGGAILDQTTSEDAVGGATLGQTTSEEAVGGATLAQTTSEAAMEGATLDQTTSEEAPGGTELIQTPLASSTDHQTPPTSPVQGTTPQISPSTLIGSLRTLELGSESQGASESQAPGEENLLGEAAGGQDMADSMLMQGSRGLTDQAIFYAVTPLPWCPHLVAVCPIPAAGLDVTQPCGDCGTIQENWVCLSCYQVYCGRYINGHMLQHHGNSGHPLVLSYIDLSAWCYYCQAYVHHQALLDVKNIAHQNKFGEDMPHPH

HDAC10 = biological target: T3, HDAC10 (Homo sapiens, UniProt Q969S8); assay: fluorescence HDAC isoenzyme activity assay; assay type: biochemical
T3 sequence (Q969S8 1-669): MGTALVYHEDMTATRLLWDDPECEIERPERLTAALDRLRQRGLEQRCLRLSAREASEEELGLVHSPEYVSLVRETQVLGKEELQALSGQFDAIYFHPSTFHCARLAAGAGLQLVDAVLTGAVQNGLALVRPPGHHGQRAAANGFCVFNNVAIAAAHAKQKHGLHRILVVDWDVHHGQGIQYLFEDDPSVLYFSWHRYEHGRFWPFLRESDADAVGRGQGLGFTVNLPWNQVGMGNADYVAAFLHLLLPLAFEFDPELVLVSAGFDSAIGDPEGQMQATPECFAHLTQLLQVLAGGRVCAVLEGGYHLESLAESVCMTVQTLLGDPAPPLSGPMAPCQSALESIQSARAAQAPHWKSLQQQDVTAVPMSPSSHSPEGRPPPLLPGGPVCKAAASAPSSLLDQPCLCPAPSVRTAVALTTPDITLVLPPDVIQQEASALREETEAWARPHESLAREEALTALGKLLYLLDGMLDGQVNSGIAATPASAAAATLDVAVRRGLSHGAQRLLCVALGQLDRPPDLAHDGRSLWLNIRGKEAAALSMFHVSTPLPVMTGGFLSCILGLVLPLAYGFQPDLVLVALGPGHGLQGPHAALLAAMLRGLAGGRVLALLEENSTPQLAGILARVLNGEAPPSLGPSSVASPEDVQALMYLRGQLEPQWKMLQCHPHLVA

HDAC2 = HDAC2 (Homo sapiens, UniProt Q92769); assay: fluorescence HDAC isoenzyme activity assay; assay type: biochemical
Chain of HDAC2 (Q92769 whole entry): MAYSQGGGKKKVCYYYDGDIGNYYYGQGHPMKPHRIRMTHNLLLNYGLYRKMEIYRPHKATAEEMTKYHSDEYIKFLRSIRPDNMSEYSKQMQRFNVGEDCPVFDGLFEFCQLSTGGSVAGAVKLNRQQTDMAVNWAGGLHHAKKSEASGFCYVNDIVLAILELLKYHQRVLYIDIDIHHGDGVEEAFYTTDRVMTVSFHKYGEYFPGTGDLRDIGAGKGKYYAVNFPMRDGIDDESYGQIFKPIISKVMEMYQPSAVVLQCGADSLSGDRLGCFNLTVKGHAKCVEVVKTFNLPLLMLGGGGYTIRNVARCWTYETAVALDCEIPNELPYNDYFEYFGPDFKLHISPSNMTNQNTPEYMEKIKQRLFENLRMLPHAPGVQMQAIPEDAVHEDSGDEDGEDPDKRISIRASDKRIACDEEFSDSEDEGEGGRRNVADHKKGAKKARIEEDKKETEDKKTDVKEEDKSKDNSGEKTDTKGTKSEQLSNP

HDAC3 = HDAC3 (Homo sapiens, UniProt O15379); assay: fluorescence HDAC isoenzyme activity assay; assay type: biochemical
Chain of HDAC3 (O15379 whole entry): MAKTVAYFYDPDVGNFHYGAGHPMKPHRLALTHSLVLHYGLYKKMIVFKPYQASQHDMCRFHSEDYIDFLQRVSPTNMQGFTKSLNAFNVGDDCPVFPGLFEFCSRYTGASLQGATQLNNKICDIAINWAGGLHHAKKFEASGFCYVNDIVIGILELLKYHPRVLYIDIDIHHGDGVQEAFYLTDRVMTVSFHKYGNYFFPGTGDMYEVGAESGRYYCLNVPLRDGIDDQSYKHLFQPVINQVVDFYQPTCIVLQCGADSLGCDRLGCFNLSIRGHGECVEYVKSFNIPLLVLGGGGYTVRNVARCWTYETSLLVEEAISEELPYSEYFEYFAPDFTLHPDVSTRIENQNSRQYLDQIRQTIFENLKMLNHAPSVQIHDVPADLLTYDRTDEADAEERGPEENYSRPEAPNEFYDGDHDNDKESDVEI

HDAC1 = HDAC1 (Homo sapiens, UniProt Q13547); assay: fluorescence HDAC isoenzyme activity assay; assay type: biochemical
Chain of HDAC1 (Q13547 whole entry): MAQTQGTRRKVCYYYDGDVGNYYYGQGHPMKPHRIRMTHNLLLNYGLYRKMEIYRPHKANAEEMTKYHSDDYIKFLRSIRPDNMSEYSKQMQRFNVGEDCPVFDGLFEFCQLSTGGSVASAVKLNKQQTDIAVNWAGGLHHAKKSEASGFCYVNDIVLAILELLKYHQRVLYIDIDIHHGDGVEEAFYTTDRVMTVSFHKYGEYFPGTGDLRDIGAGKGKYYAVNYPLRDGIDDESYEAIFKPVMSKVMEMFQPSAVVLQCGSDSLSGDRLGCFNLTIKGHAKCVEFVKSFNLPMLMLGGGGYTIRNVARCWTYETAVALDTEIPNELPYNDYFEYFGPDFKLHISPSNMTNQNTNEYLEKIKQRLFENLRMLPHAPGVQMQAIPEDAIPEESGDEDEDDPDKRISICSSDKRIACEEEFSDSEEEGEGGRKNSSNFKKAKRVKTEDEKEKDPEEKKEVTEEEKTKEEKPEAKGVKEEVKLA

HDAC8 = biological target: T4, HDAC8 (Homo sapiens, UniProt Q9BY41); assay: biochemical; design: Fluorescence HDAC isoenzyme deacetylase activity assay, excitation 360 nm, emission 460 nm
T4 sequence (Q9BY41 1-377): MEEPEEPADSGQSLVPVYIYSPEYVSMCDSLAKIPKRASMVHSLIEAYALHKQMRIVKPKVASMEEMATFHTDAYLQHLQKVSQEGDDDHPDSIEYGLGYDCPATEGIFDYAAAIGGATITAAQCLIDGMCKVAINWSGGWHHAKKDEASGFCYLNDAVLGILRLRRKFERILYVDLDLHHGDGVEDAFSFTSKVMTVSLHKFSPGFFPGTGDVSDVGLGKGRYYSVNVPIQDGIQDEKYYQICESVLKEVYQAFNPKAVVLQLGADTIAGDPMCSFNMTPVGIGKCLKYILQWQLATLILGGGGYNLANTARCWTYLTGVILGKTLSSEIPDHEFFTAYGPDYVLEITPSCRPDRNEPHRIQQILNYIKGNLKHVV
Method: HDAC activity assays were performed as previously reported. The fluorescence signal was measured using a SpectraMax i3x fluorimeter (Molecular Devices Korea) with SoftMax Pro software at an excitation wavelength of 360 nm and an emission wavelength of 460 nm. […] We conducted total HDAC activity assays to assess the effect of martinostat on the deacetylase activity in vitro.

SMILES: CN(Cc1ccc(/C=C/C(=O)NO)cc1)CC12CC3CC(CC(C3)C1)C2 [martinostat]
- IC50 (HDAC11): 34 ± 1 nM
- IC50 (HDAC6): 70 ± 7 nM
- IC50 (HDAC10): 72 ± 7 nM
- IC50 (HDAC2): 61 ± 7 nM
- IC50 (HDAC3): 79 ± 8 nM
- IC50 (HDAC1): 80 ± 3 nM
- IC50 (HDAC8): 1650 ± 155 nM
